What all share (assay type): cell-based
In data set [1] the test system is MOLT-4 cells. The data set can be described thus: Cell viability assay, MTS, 72 h, MOLT-4. The conditions noted are these: for IC50: Homo sapiens. On the procedure:
(§1) Cancer cells from different tissue origins including acute lymphoblastic leukemia (MOLT4 and RS4; 11), small cell lung cancer (NCI-H146 or simply H146), and multiple myeloma (EJM and H929) were incubated with increasing concentrations of Examples 1-21 or ABT-263 for 72 h. Cell viability was measured by tetrazolium-based MTS assay. 5×10^4 to 1×10^5 suspension cells or 3×10^3 to 5×10^3 adherent cells were seeded and treated in 96-well plates for 72 h. The EC50 values of individual agents were calculated with GraphPad Prism.

Data set [2] has as its system human platelets. The data set can be described thus: Human platelet viability, MTS assay. The note with it: for IC50: Platelet, MTS assay (Table 2, FIG. 2). Here is the method: FIG. 2. depicts dose response curves of ABT-263 and Compound 53 in MOLT-4 T-ALL cells & human platelets determined by MTS assay.
as §1

The subject of data set [3] is MOLT-4 cells. Description: Cell viability assay, MTS, 48 h, MOLT-4. The conditions noted are these: for IC50: Homo sapiens, MOLT-4, 48 h. On the procedure: (§2) Acute lymphoblastic leukemia cells (MOLT-4 and RS4; 11) or small cell lung cancer (NCI-H146 or simply H146) were incubated with increasing concentrations of Bcl-xL degraders for 48 h. Cell viability was measured by tetrazolium-based MTS assay.

In another data set the test system is RS4;11 cells. Description: Cell viability assay, MTS, 48 h, RS4;11. The conditions noted are these: for IC50: Homo sapiens, RS4-11, 48 h. Here is the method:
as §2

The subject of a further data set is NCI-H146 cells. Description: Cell viability assay, MTS, 48 h, NCI-H146. The conditions noted are these: for IC50: Homo sapiens. Here is the method: as §2
The test system of data set [4] is human platelets. Description: Human platelet viability, 48 h. The note with it: for IC50: Platelet.
A further data set deals with RS4 cells. Description: Cell viability assay, MTS, 72 h, RS4;11. The conditions noted are these: Homo sapiens. On the procedure:
as §1

Another data set deals with Bcl-xL (Homo sapiens, UniProt Q07817). The data set can be described thus: Protein degradation assay in MOLT-4 cells (western blot). Set-up: endogenous in cells; host or cells: MOLT-4 cells. The note with it: 16 h, read-out: DC50 (concentration with 50% degradation) of Bcl-xL. Here is the method: MOLT4 cells and human platelets were incubated with increasing concentrations of test compounds for 16 h. The cells were harvested and lysed in RIPA lysis buffer supplemented with protease and phosphatase inhibitor cocktails. An equal amount of protein (20 μg/lane) was resolved on a pre-cast 4-20% SDS-PAGE gel. Proteins were subsequently transferred to NOVEX PVDF membranes by electrophoresis. The membranes were blocked in blocking buffer (5% non-fat dry milk in TBS-T), and incubated with primary antibodies (at optimized concentrations) overnight at 4° C. After three washings in TBS-T, the membranes were incubated with an appropriate HRP-conjugated secondary antibody for 1 h at room temperature. After extensive washing for three times, the proteins of interest were detected with ECL western blotting detection reagents and recorded with autoradiography (Pierce Biotech, Rockford, Ill., USA). The primary antibodies for Bcl-xL (Cat #2762), Bcl-2 (Cat #2872), Mcl-1 (Cat #5453) and β-actin (Cat #4970) were purchased from Cell Signaling technology. The relative band intensity was measured using ImageJ software and normalized to b-actin. The DC50 (concentration with 50% degradation) was calculated using GraphPad Prism.
MOLT-4 cells and human platelets were incubated with increasing concentrations of test compounds for 16 h. The cells were harvested and lysed in RIPA lysis buffer supplemented with protease and phosphatase inhibitor cocktails. An equal amount of protein (20 μg/lane) was resolved on a pre-cast 4-20% SDS-PAGE gel. Proteins were subsequently transferred to NOVEX PVDF membranes by electrophoresis. […] After extensive washing for three times, the proteins of interest were detected with ECL western blotting detection reagents and recorded with autoradiography (Pierce Biotech, Rockford, Ill., USA). […] The relative band intensity was measured using ImageJ software and normalized to β-actin. The DC50 was calculated using GraphPad Prism.
For orientation: A western blot detects proteins with antibodies after separation by electrophoresis.

Setting [5] is: MOLT-4 T-ALL cells, MTS assay (Table 2, FIG. 2).
[6] abbreviates: 48 h, read-out: MOLT-4 IC50 (nM, 48 h).
Where [7] appears, read: 48 h, read-out: RS4, 11 IC50 (nM, 48 h).

Results on three molecules are retold here after patent US20220169628A1 (University of Florida Research Foundation, Incorporated, priority 2019, published 2022).

Like-named read-outs stand apart in the source and are kept apart here. A value given as a limit tells only on which side of the number the result lay.

Bcl-xL, sequence (Q07817 whole entry): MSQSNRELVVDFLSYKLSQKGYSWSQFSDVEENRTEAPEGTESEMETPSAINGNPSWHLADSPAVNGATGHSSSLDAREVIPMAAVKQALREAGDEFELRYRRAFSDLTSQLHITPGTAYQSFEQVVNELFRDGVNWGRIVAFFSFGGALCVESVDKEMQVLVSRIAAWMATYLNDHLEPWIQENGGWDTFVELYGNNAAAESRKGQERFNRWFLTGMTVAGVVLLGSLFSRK

Turning to `CC1(C)CCC(c2ccc(Cl)cc2)=C(CN2CCN(c3ccc(C(=O)NS(=O)(=O)c4ccc(N[C@H](CCN5CCOCC5)CSc5ccccc5)c(S(=O)(=O)C(F)(F)F)c4)cc3)CC2)C1` [ABT-263, reference compound], the IC50 was found to be 202 nM with MOLT-4 cells [1] (setting [5]); 190 nM with human platelets [2]; 201 nM in the data set on MOLT-4 cells [3] (setting [6]); 35 nM in the data set with RS4;11 cells (setting [7]); 36 nM in the data set with NCI-H146 cells; 0.5 µM in the data set with human platelets [4].
In the case of `Cc1ncsc1-c1ccc([C@H](C)NC(=O)[C@@H]2C[C@@H](O)CN2C(=O)[C@@H](NC(=O)CCCCCCCCC(=O)NCC2(C)CCC(c3ccc(Cl)cc3)=C(CN3CCN(c4ccc(C(=O)NS(=O)(=O)c5ccc(N[C@H](CCN6CCOCC6)CSc6ccccc6)c(S(=O)(=O)C(F)(F)F)c5)cc4)CC3)C2)C(C)(C)C)cc1` (stereo partly drawn) [Compound 53, N^1-((4′-chloro-4-methyl-6-((4-(4-(((4-(((R)-4-morpholino-1-(phenylthio)butan-2-yl)amino)-3-((trifluoromethyl)sulfonyl)phenyl)sulfonyl)carbamoyl)phenyl)piperazin-1-yl)methyl)-2,3,4,5-tetrahydro-[1,1′-biphenyl]-4-yl)methyl)-N^10—((S)-1-((2S,4R)-4-hydroxy-2-(((S)-1-(4-(4-methylthiazol-5-yl)phenyl)ethyl)carbamoyl)pyrrolidin-1-yl)-3,3-dimethyl-1-oxobutan-2-yl)decanediamide], the IC50 came out at 36 nM in the data set on MOLT-4 cells [1] (setting [5]); 36 nM in the data set on MOLT-4 cells [1] (MOLT-4 cells, 72 h, MTS); 17.4 nM with RS4 cells; 1550 nM in the data set with human platelets [2]. In the data set with MOLT-4 cells [1] (MOLT-4 cells, FIG. 2), the “potency in MOLT-4 cells compared with ABT-263” value is listed as “more potent than ABT-263”. For the same molecule, the “effects on human platelets compared with ABT-263” value in the data set with human platelets [2] (FIG. 2) was “substantially less effects on human platelets than ABT-263”.
`Cc1ncsc1-c1ccc([C@H](C)NC(=O)[C@@H]2C[C@@H](O)CN2C(=O)[C@@H](NC(=O)CCCCCCCCC(=O)NC[C@]2(C)CCC(c3ccc(Cl)cc3)=C(CN3CCN(c4ccc(C(=O)NS(=O)(=O)c5ccc(N[C@H](CCN6CCOCC6)CSc6ccccc6)c(S(=O)(=O)C(F)(F)F)c5)cc4)CC3)C2)C(C)(C)C)cc1` [degrader #42, N1-(((R)-4′-chloro-4-methyl-6-((4-(4-(((4-(((R)-4-morpholino-1-(phenylthio)butan-2-yl)amino)-3-((trifluoromethyl)sulfonyl)phenyl)sulfonyl)carbamoyl)phenyl)piperazin-1-yl)methyl)-2,3,4,5-tetrahydro-[1,1′-biphenyl]-4-yl)methyl)-N10-((S)-1-((2S,4R)-4-hydroxy-2-(((S)-1-(4-(4-methylthiazol-5-yl)phenyl)ethyl)carbamoyl)pyrrolidin-1-yl)-3,3-dimethyl-1-oxobutan-2-yl)decanediamide]: in the data set on MOLT-4 cells [3] (48 h, FIG. 7), the “potency in killing MOLT-4 cells compared with ABT-263” value is “more potent”. In addition, the IC50 in the data set with MOLT-4 cells [3] (setting [6]) is 15.2 nM; with MOLT-4 cells [3] (48 hours, read-out: IC50 (48 hours) MOLT-4) it was < 50 nM; with RS4;11 cells (setting [7]), 9.9 nM; in the data set on RS4;11 cells (48 hours, read-out: IC50 (48 hours) RS4;11), < 50 nM; with NCI-H146 cells it was 45 nM; with human platelets [4], 1.09 µM. In addition, in the data set with RS4;11 cells (48 h, FIG. 7), the “potency in killing RS4;11 cells compared with ABT-263” value was “more potent”. In the data set with NCI-H146 cells (FIG. 7), the “potency in killing NCI-H146 cells compared with ABT-263” value is “equally potent”. In the data set with human platelets [4] (FIG. 7), the “effects on human platelets compared with ABT-263” value is given as “substantially less effects on human platelets”. The DC50 on Bcl-xL was found to be 11.5 nM.

As a reminder, the IC50 is the point on the concentration scale where inhibition reaches its midpoint.
